Measurements from patent US11041181B2, “Promoter and method for producing purine nucleotide using the same” (CJ CHEILJEDANG CORPORATION, priority 2019, dated 2021).

Assays:
ATCC6872 = assay: Resistance/sensitivity characteristics of strain on minimal medium with resistance-providing material; format: cell-based, Corynebacterium stationis
Description: (§1) To prepare an IMP-producing strain derived from the ATCC6872 strain, the culture of ATCC6872 was suspended in a phosphate buffer (pH 7.0) or citrate buffer (pH 5.5) at a density of 10^7 cells/mL to 10^8 cells/mL and treated with UV at room temperature or 32° C. for 20 min to 40 min to induce a mutation. The strain was washed with a 0.85% saline solution twice and spread, after dilution, on a minimal medium containing 1.7% agar which was supplemented with a resistance-providing material at an appropriate concentration, and thereby colonies were obtained. Each colony was cultured in a nutrient medium and then cultured in a seed culture medium for 24 hours. […] To prepare a strain producing IMP at high concentration, adenine-auxotroph, guanine-leaky type, lysozyme sensitivity, 3,4-dehydroproline resistance, streptomycin resistance, sulfaguanidine resistance, norvaline resistance, and trimethoprim resistance were provided by performing the corresponding procedures in a sequential manner. As a result, the CJI2332 strain provided with resistance to the above materials and having excellent IMP productivity was finally selected.
(§2) Minimal medium: 2% glucose, 0.3% sodium sulfate, 0.1% monopotassium phosphate, 0.3% dipotassium phosphate, 0.3% magnesium sulfate, 10 mg/L calcium chloride, 10 mg/L iron sulfate, 1 mg/L zinc sulfate, 3.6 mg/L manganese chloride, 20 mg/L L-cysteine, 10 mg/L calcium pantothenate, 5 mg/L thiamine hydrochloride, 30 μg/L biotin, 20 mg/L adenine, 20 mg/L guanine, adjusted to pH 7.3.

CJI2332 = format: cell-based, Corynebacterium stationis
Description: as §1, §2

Compound | resistance (ATCC6872) | resistance (CJI2332) | also measured
CCC[C@H](N)C(=O)O [Norvaline] |  |  | Norvaline resistance (ATCC6872): 0.2 mg/mL; Norvaline resistance (CJI2332): 2 mg/mL
O=C(O)C1C=CCN1 (stereo not drawn) [3,4-Dehydroproline] | 1,000 μg/mL | 3,500 μg/mL | 
COc1cc(Cc2cnc(N)nc2N)cc(OC)c1OC [Trimethoprim] | 20 µg/mL | 100 µg/mL | 
[H]/N=C(/N)NS(=O)(=O)c1ccc(N)cc1 [Sulfaguanidine] | 50 µg/mL | 200 µg/mL | 
[H]/N=C(/N)N[C@H]1[C@H](O)[C@@H](O)[C@H](O[C@@H]2O[C@@H](C)[C@](O)(C=O)[C@H]2O[C@@H]2O[C@@H](CO)[C@H](O)[C@@H](O)[C@@H]2NC)[C@@H](N/C(N)=N\[H])[C@@H]1O [Streptomycin] | 500 µg/mL | 2,000 μg/mL | 
Lysozyme |  |  | Lysozyme sensitivity (ATCC6872): 80 µg/mL; Lysozyme sensitivity (CJI2332): 8 µg/mL
